Assay results reported in US6147097A, “Imidazole derivatives as anti-HIV agents” (Shionogi & Co., Ltd., priority 1994, dated 2000).
Converted amounts (≈) assume the structure as drawn. Where a name gives a salt, the structure may show the parent alone. Read-outs that look alike come from different tables or passages of the source.

Legend:
[1] = target: T1, purified recombinant HIV-1 reverse transcriptase (Human immunodeficiency virus type 1 group M subtype B, UniProt P04585); test: reverse transcriptase inhibition, poly(rA)/(dT) template primer, [3H]dTTP uptake; assay type: biochemical
T1 construct: purified recombinant HIV-1 reverse transcriptase; made in house; host or cells: Escherichia coli
Protocol: The reverse transcriptase activity of each of the compounds synthesized in Examples was assayed by the following procedures.
Using the purified recombinant HIV-1 reverse transcriptase RT, E.C. 2.7.7.49) obtained by expression in Escherichia Coli, a 96-well plate assay system was established for assaying a large number of samples. The RT inhibitory activity was determined as follows. To 11 μl of a solution of the test inhibitor in water or MSO was added 100 μl of a reaction mixture (0.1 unit/100 μl RT, 50 mM Tris-HCl pH 8.3, 150 mM KCl, 10 mM MgCl2, 3 mM dithiothreitol, 0.1% Nonidet P-40, 10 μg/ml. poly(rA) and 10 μg/ml (dT)12-1.8 as template and primer, and 4 μM dTTP, 1 μCi/100 μl [^3 H]dTTP as substrate) and the mixture was incubated at 37° C. for 1 hour and, then, immediately cooled on ice. Using a cell harvester, the reaction mixture was transferred to a DEAE-filter mat (LKB-Pharmacia). Then, using the wash line of the cell harvester, the cells were washed twice with 5% Na2 HPO4 /H2 O and once with water and dried at 95° C. for 15 minutes. […] The inhibitory activity was expressed in percent inhibition relative to the uptake on water or DMSO control.

[2] = test system: HIV (HTLV-IIIB strain); test: microbe, parasite or virus in culture; assay type: cell-based; conditions: Human immunodeficiency virus 1, IIIB, MT4, 120 h
Protocol: The anti-HIV activity of each of the compounds produced in Examples was assayed by the following procedures. […] On the other hand, the test compound was diluted with the above culture medium to predetermined concentrations and distributed in 50 μl aliquots into a 96-well microtiter plate. Then, d suspension of MT-4 cells was added in 100 μl aliquots (3.5×10^4 cells per well) and then the above HIV-containing supernatant diluted with the above culture medium was added, 50 μl (60 pfu (plaque forming units)) per well. (2) The plate was incubated in a CO2 incubator at 37° C. for 5 days. Then, 30 μl/well of 3-(4,5-dimethyl thiazol-2-yl)-2,5-diphenyltetrazolium bromide (MTT) (5 mg/ml PBS) was added and the incubation was further continued for 1 hour. The surviving cells reducing MTT yield precipitation of formazan. Therefore, 150 μl portions of the culture supernatant were removed from all wells and, instead, 150 μl of a solution (10% Triton X-100 and 0.4% (v/v) HCl-added isopropyl alcohol) was added. The plate was shaken on a plate mixer to dissolve the formazan.

[3] = cytotoxicity in MT-4 cells (MTT, culture medium in place of HIV); assay type: cell-based; conditions: human
Summary of the method: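 MT-4 cells (3.5×10^4 per well) exposed to diluted compound with culture medium added instead of HIV, 5 days at 37° C in CO2. MTT added for 1 h, formazan dissolved in Triton X-100/acidified isopropanol. OD read at 560 nm (690 nm reference) and compared with control.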

[4] = MT-4 cells, no virus, 37° C., 5 days, MTT, Table 3, read-out: CC50
[5] = MT-4 cells, 60 pfu HIV per well, 37° C., 5 days, MTT, Tables 1 and 2, read-out: EC50

Compound	IC50 [1] [µM]	EC50 [2] [µg/mL]	CC50 at 120 h [3, 4] [µg/mL]	EC50 [2, 5] [µg/mL]	CC50 at 120 h ([3]; mt-4 cells) [µg/mL]	IC50 ([1]; read-out: RT IC50, pH 8.3, 37° C., 1 hour, Tables 5 and 6) [µM]
C=CCn1c(CO)nc(C(C)C)c1Sc1cccc([N+](=O)[O-])c1 [Compound I-22, [1-allyl-4-isopropyl-5-(3-nitrophenylthio)-1H-imidazol-2-yl]methanol]	1.68	0.002 (≈ 0.006 µM)	25 (≈ 75 µM)			
CC(C)c1nc(CN)n(C)c1Sc1cc(Cl)cc(Cl)c1.O=C(O)C(=O)O [Compound I-66, 2-aminomethyl-5-(3,5-dichlorophenylthio)-4-isopropyl-1-methylimidazole oxalate]	1.64		6.3 to 12.5	0.016		
CNC(=O)OCc1nc(C(C)C)c(Sc2cc(Cl)cc(Cl)c2)n1C [Compound I-43, 5-(3,5-dichlorophenylthio)-4-isopropyl-1-methyl-2-(N-methylcarbamoyl)oxymethyl-1H-imidazole]	13.6		1 to 10 (≈ 2.58 to 25.8 µM)	0.25 (≈ 0.644 µM)		
CC(C)c1nc(CO)n(CC2CC2)c1Sc1cc(Cl)cc(Cl)c1 [Compound I-30, [1-cyclopropylmethyl-5-(3,5-dichlorophenylthio)-4-isopropyl-1H-imidazol-2-yl]methanol]	2.45		10 to 100 (≈ 26.9 to 269 µM)	0.005 to 0.01 (≈ 0.0135 to 0.0269 µM)		
CC(C)c1nc(CO)n(Cc2cccs2)c1Sc1cc(Cl)cc(Cl)c1.Cl [Compound I-126, 5-(3,5-dichlorophenylthio)-2-hydroxymethyl-4-isopropyl-1-(2-thienylmethyl)-1H-imidazole hydrochloride]	30.9			0.03	12.5 to 25	
CC(C)c1nc(CCO)n(CCO)c1Sc1cc(Cl)cc(Cl)c1 [Compound 131c, 2-(5-(3,5-dichlorophenylthio)-2-(2-hydroxyethyl)-4-isopropyl-1H-imidazol-1-yl)ethanol]	2.58			< 0.008	6.3 to 12.5 (≈ 16.8 to 33.3 µM)	
CCn1c(CN)nc(C(C)C)c1Sc1cc(Cl)cc(Cl)c1 [Compound I-71, 2-aminomethyl-5-(3,5-dichlorophenylthio)-1-ethyl-4-isopropyl-1H-imidazole]	0.987		1 to 10 (≈ 2.9 to 29 µM)	0.008 (≈ 0.0232 µM)		
CC(C)c1c(Sc2cccc(Cl)c2)nc(CO)n1C [Compound I-38, [4-(3-chlorophenylthio)-5-isopropyl-1-methyl-1H-imidazol-2-yl]methanol]	273		12.5 to 25 (≈ 42.1 to 84.2 µM)	6.3 (≈ 21.2 µM)		
CC(C)c1nc(CNC(N)=O)n(C)c1Sc1cc(Cl)cc(Cl)c1 [Compound I-90, 5-(3,5-dichlorophenylthio)-4-isopropyl-1-methyl-2-ureidomethyl-1H-imidazole]	6.7		10 to 100 (≈ 26.8 to 268 µM)	0.13 (≈ 0.348 µM)		
CNCc1nc(C(C)C)c(Sc2cc(Cl)cc(Cl)c2)n1C [Compound I-85, 5-(3,5-dichlorophenylthio)-4-isopropyl-1-methyl-2-methylaminomethyl-1H-imidazole]	7.55		1 to 10 (≈ 2.9 to 29 µM)	0.13 (≈ 0.378 µM)		
CC(C)c1nc(CN)n(Cc2cccnc2)c1Sc1cc(Cl)cc(Cl)c1 [Compound I-94, 2-aminomethyl-5-(3,5-dichlorophenylthio)-4-isopropyl-1-(pyridin-3-yl)methyl-1H-imidazole]	4.66		12.5 to 25 (≈ 30.7 to 61.4 µM)	0.03 (≈ 0.0736 µM)		
CCCn1c(COC(N)=O)nc(C(C)C)c1Sc1cccc(Cl)c1 [Compound I-54, 2-carbamoyloxymethyl-5-(3-chlorophenylthio)-4-isopropyl-1-n-propyl-1H-imidazole]	1.25	0.004 (≈ 0.0109 µM)	12.5 (≈ 34 µM)			
CCn1c(CN)nc(C(C)C)c1Sc1cccc(Cl)c1 [Compound I-73, 2-aminomethyl-5-(3-chlorophenylthio)-1-ethyl-4-isopropylimidazole]	0.807			0.016 (≈ 0.0516 µM)	6.3 (≈ 20.3 µM)	
CCn1c(COC(N)=O)nc(C(C)C)c1Sc1cc(Cl)cc(Cl)c1 [Compound I-52, 2-carbamoyloxymethyl-5-(3,5-dichlorophenylthio)-1-ethyl-4-isopropyl-1H-imidazole]	0.464	0.003 (≈ 0.00773 µM)	10 (≈ 25.8 µM)			
CC(C)c1nc(COC(N)=O)n(CCc2ccccn2)c1Sc1cc(Cl)cc(Cl)c1 [Compound I-129, 2-carbamoyloxymethyl-5-(3,5-dichlorophenylthio)-4-isopropyl-1-(2-(2-pyridyl)ethyl)-1H-imidazole]	76.9			0.06 (≈ 0.129 µM)	12.5 to 25 (≈ 26.9 to 53.7 µM)	
CC(=O)OCc1nc(C(C)C)c(Sc2cc(Cl)cc(Cl)c2)n1C [Compound I-40, [5-(3,5-dichlorophenylthio)-4-isopropyl-1-methyl-1H-imidazol-2-yl]methyl acetate]	28.7		12.5 to 25	0.016		
CC(C)c1nc(COCCOC(N)=O)n(C)c1Sc1cc(Cl)cc(Cl)c1 [Compound I-61, (2-carbamoyloxy)ethoxymethyl-5-(3,5-dichlorophenylthio)-4-isopropyl-1-methyl-1H-imidazole]	185		6.3 to 12.5 (≈ 15.1 to 29.9 µM)	0.5 (≈ 1.2 µM)		
CC(C)c1nc(CCN)n(C)c1Sc1cc(Cl)cc(Cl)c1 [Compound I-82, 2-(2-aminoethyl)-5-(3,5-dichlorophenylthio)-4-isopropyl-1-methyl-1H-imidazole]				0.25 (≈ 0.726 µM)	1.5 to 3.2 (≈ 4.36 to 9.29 µM)	1.28
CC(C)c1nc(CN)n(C)c1Sc1ccccc1 [Compound I-74, 2-aminomethyl-4-isopropyl-1-methyl-5-phenylthioimidazole]	21.8		12.5 to 25 (≈ 47.8 to 95.6 µM)	0.25 (≈ 0.956 µM)		
CC(C)c1nc(CO)n(Cc2ccsc2)c1Sc1cc(Cl)cc(Cl)c1 [Compound I-127, 5-(3,5-dichlorophenylthio)-2-hydroxymethyl-4-isopropyl-1-(13-thienylmethyl)-1H-imidazole hydrochloride]	14.8			0.016	12.5 to 25	
CCc1nc(C)n(C)c1Sc1cc(C)cc(C)c1 [Compound I-5, 1,2-dimethyl-5-(3,5-dimethylphenylthio)-4-ethylimidazole]	8.83		1 to 10 (≈ 3.84 to 38.4 µM)	0.06 (≈ 0.23 µM)		
CC(C)c1nc(CCCO)n(Cc2ccncc2)c1Sc1cc(Cl)cc(Cl)c1 [Compound 137c, 3-(5-(3,5-dichlorophenylthio)-4-isopropyl-1-(pyridin-4-ylmethyl)-1H-imidazol-2-yl)-propan-1-ol]	0.71			0.003 to 0.005 (≈ 0.00687 to 0.0115 µM)	6.3 to 12.5 (≈ 14.4 to 28.6 µM)	
Cc1cc(C)cc(Sc2c(C(C)C)nc(C)n2Cc2ccccc2)c1 [Compound I-4, 1-benzyl-5-(3,5-dimethylphenylthio)-4-isopropyl-2-methylimidazole]	4.85		12.5 (≈ 35.7 µM)	0.016 (≈ 0.0456 µM)		
CC(C)c1nc(COC(N)=O)n(Cc2ccccc2)c1Sc1cc(Cl)cc(Cl)c1 [Compound I-45, 1-benzyl-2-carbamoyloxymethyl-5-(3,5-dichlorophenylthio)-4-isopropyl-1H-imidazole]	1.44	0.004 to 0.008 (≈ 0.00888 to 0.0178 µM)	12.5 (≈ 27.8 µM)			
CC(C)c1nc(CC#N)n(C)c1Sc1cc(Cl)cc(Cl)c1 [Compound I-80a, [5-(3,5-dichlorophenylthio)-4-isopropyl-1-methyl-1H-imidazol-2-yl]acetonitrile]	0.323		100 (≈ 294 µM)	0.002 to 0.004 (≈ 0.00588 to 0.0118 µM)		
CC(C)c1nc(CCCOC(N)=O)n(Cc2ccncc2)c1Sc1cc(Cl)cc(Cl)c1 [Compound I-150, 2-(3-carbamoyloxypropyl)-5-(3,5-dichlorophenylthio)-4-isopropyl-1-(pyridin-4-yl)methyl-1H-imidazole]	1.88			0.008 (≈ 0.0167 µM)	6.3 to 12.5 (≈ 13.1 to 26.1 µM)	
CCCn1c(CO)nc(C(C)C)c1Sc1cccc(Cl)c1 [Compound I-29, [5-(3-chlorophenylthio)-4-isopropyl-1-n-propyl-1H-imidazol-2-yl]methanol]	1.85		12.5 (≈ 38.5 µM)	0.016 to 0.03 (≈ 0.0492 to 0.0923 µM)		
